Test results published in patent publication US20120077795A1, “BIS-PYRIDYLPYRIDONES AS MELANIN-CONCENTRATING HORMONE RECEPTOR 1 ANTAGONISTS” (GLAXSMITHKLINE LLC, priority 2009, published 2012).

Biological target: T1, hMCHR1 (Homo sapiens, UniProt Q99705)
T1 construct: expressed in transfected cells; host or cells: HEK293
Assay: MCHR1 pIC50 determination FLIPR assay (calcium response to MCH challenge)
Format: cell-based
Details: HEK293 cells stably transfected with hMCHR1; MCH challenge at 4XEC50
Procedure: MCHR^1 pIC50 Determination FLIPR™ Assay: HEK293 cells stably transfected with hMCHR1 were propagated as adherent cultures at 37° C. in a humidified incubator. Cells were split 1:8 at 90% confluency two times per week. New cell stocks were recovered from storage every two months. Cells were plated in black 384-well plates (Greiner) 24 hours prior to assay at 15,000 cells/well in 50 μL DMEM/F12, 10% FBS, 2 mM I-glutamine. Compounds to be profiled were prepared by making a stock solution at 3×10^−3M in 100% DMSO. The stock solutions were serially diluted 1:4 in 100% DMSO using JANUS (PerkinElmer) liquid handling instrument to allow for an 11 point curve in singlicate. At the time of the assay, the media was removed from the cell plate by aspiration, followed by the addition of 20 μL of loading buffer (Calcium 4 Kit, […]). Following 50 min incubation at 37° C., 10 μL of compound was added to the plates via the FLIPR™ instrument ([…]). The plates were incubated at room temperature for 15 minutes along with an MCH peptide agonist challenge plate. […] The amount of luciferase generated was quantified in a TopCount (PerkinElmer Packard) at 19.8° C. in SPC (single photon counting) mode with a 5 second count/well and subjected to a nonlinear regression analysis curve fitting program to generate pIC50s.

T1 sequence (Q99705 whole entry): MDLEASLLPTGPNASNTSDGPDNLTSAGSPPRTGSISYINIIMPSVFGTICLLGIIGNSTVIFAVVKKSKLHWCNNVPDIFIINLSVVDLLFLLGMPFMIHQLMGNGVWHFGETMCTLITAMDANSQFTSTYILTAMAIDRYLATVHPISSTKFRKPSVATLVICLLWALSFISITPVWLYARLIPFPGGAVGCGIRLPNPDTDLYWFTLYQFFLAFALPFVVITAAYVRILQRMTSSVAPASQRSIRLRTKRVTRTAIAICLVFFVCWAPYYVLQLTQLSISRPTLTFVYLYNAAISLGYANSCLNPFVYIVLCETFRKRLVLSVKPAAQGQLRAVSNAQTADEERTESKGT

| IC50 [nM] | Compound |
| --- | --- |
| 45 | CNC1C2CN(c3ccc(-n4ccc(OCc5ccc(Cl)cn5)cc4=O)cn3)CC21 (centres unmarked) [Example 14] |
| 56 | O=c1cc(OCc2ccc(Cl)cn2)ccn1-c1ccc(N2CC3CONC3C2)nc1 (centres unmarked) [Example 16] |
